We go through 44 molecules from US20050101595A1, “N-containing cycloalkyl-substituted amino-thiazole derivatives and pharmaceutical compositions for inhibiting cell proliferation and methods for their use” (PFIZER INC., priority 2003, published 2005).

Usually IC50 stands for the concentration at which inhibition is half-maximal. As usually defined, the inhibition is the relative decrease from the control value, in per cent.

The first assay deals with HCT-116 cell line. Put plainly: Inhibition of cell growth, tetrazolium salt (MTT) assay. The conditions noted are these: HCT116 cells; compound at 250 nM; 0.25 µM. It is filed as cell-based. The procedure: Inhibition of Cell Growth: Assessment of Cytotoxicity:
Inhibition of cell growth was measured using the tetrazolium salt assay, which is based on the ability of viable cells to reduce 3-(4,5-dimethylthiazol-2-yl)-2,5-[2H]-diphenyltetrazolium bromide (MTT) to formazan (Mossman, Journal of Immunological Methods, vol. 65 (1983), pp. 55-58). The water-insoluble purple formazan product was then detected spectrophotometrically. The HCT-116 cell line was used as a representative cancer cell line and grown in 96-well plates. Cells were plated in McCoy's 5A Medium at a volume of 135 μl/well. Plates were incubated for four hours before addition of inhibitor compounds. Different concentrations of inhibitor compounds were added in 0.5% (v/v) dimethylsulfoxide (15 μLuwell), and cells were incubated at 37° C. (5% CO2) for three to five days. At the end of the incubation, MTT was added to a final concentration of 0.2 mg/mL, and cells were incubated for 4 hours more at 37° C. After centrifugation of the plates and removal of medium, the absorbance of the formazan (solubilized in dimethylsulfoxide) was measured at 540 nm. […] All results were compared to control cells treated only with 0.5% (v/v) dimethylsulfoxide.
For `Nc1nc(NC2CCN(S(=O)(=O)CCNCc3cccnc3)CC2)sc1C(=O)c1c(F)cccc1F` [Example S84], the “% Inhibition HCT116 @ 250 nM” value is listed as 12%.

The same assay, now with this note: Homo sapiens, HCT-116, 120 h, first HCT-116 column (c4); MTT, three to five days; read-out: HCT-116 IC50.
As for `Nc1nc(NC2CCN(S(=O)(=O)CCNCc3cccc(Cl)c3)CC2)sc1C(=O)c1c(F)cccc1F` [Example K52, (4-Amino-2-{1-[2-(3-chloro-benzylamino)-ethanesulfonyl]-piperidin-4-ylamino}-thiazol-5-yl)-(2,6-difluoro-phenyl)-methanone], the IC50 was 110 nM.

Staying with this assay, now noted: Homo sapiens, HCT-116, 120 h, second HCT-116 column (c5); MTT, three to five days; read-out: HCT-116 IC50.
`Nc1nc(NC2CCN(S(=O)(=O)CCNCc3cccc(Cl)c3)CC2)sc1C(=O)c1c(F)cccc1F` [Example K52, (4-Amino-2-{1-[2-(3-chloro-benzylamino)-ethanesulfonyl]-piperidin-4-ylamino}-thiazol-5-yl)-(2,6-difluoro-phenyl)-methanone]: the half-maximal inhibitory concentration (IC50) was 250 nM.

Staying with this assay, now noted: Homo sapiens, HCT-116, HCT116 cells; compound at 250 nM; read-out: % Inhibition HCT116 @ 250 nM.
On to `CC(C)N(CCS(=O)(=O)N1CCC(Nc2nc(N)c(C(=O)c3c(F)cccc3F)s2)CC1)Cc1ccccc1` [Example S44], for which the inhibition at 0.25 µM stood at 55%.

For `Nc1nc(NC2CCN(S(=O)(=O)CCN[C@@H]3CONC3=O)CC2)sc1C(=O)c1c(F)cccc1F` [Example S76], the inhibition at 0.25 µM is 11%.

For `CCCCN(CC#N)CCS(=O)(=O)N1CCC(Nc2nc(N)c(C(=O)c3c(F)cccc3F)s2)CC1` [Example S2], the inhibition at 0.25 µM stood at 18%.

`CN1CCCC1CCNCCS(=O)(=O)N1CCC(Nc2nc(N)c(C(=O)c3c(F)cccc3F)s2)CC1` (stereo not drawn) [Example S69]: the inhibition at 0.25 µM stood at 31%.

`C=CCNCCS(=O)(=O)N1CCC(Nc2nc(N)c(C(=O)c3c(F)cccc3F)s2)CC1` [Example S120]: the inhibition at 0.25 µM turned out to be 17%.

On to `NC(=O)C1CCN(CCS(=O)(=O)N2CCC(Nc3nc(N)c(C(=O)c4c(F)cccc4F)s3)CC2)CC1` [Example S48], for which the inhibition at 0.25 µM is 17%.

Consider `Nc1nc(NC2CCN(S(=O)(=O)CCNCc3ccc(F)cc3F)CC2)sc1C(=O)c1c(F)cccc1F` [Example S124], for which the inhibition at 0.25 µM is 51%.

With `CC1CCN(CCNCCS(=O)(=O)N2CCC(Nc3nc(N)c(C(=O)c4c(F)cccc4F)s3)CC2)CC1` [Example S163], the inhibition at 0.25 µM stood at 25%.

Take `CN(CCS(=O)(=O)N1CCC(Nc2nc(N)c(C(=O)c3c(F)cccc3F)s2)CC1)CC(=O)N(C)C` [Example S55]: the inhibition at 0.25 µM worked out at 7%.

As for `COc1ccccc1CNCCS(=O)(=O)N1CCC(Nc2nc(N)c(C(=O)c3c(F)cccc3F)s2)CC1` [Example S97], the inhibition at 0.25 µM came to 25%.

Consider `CSCCNCCS(=O)(=O)N1CCC(Nc2nc(N)c(C(=O)c3c(F)cccc3F)s2)CC1` [Example S133], for which the inhibition at 0.25 µM was found to be 18%.

Turning to `C=C(C)CNCCS(=O)(=O)N1CCC(Nc2nc(N)c(C(=O)c3c(F)cccc3F)s2)CC1` [Example S151], the inhibition at 0.25 µM was found to be 50%.

As for `COC(=O)[C@@H](C)NCCS(=O)(=O)N1CCC(Nc2nc(N)c(C(=O)c3c(F)cccc3F)s2)CC1` [Example S155], the inhibition at 0.25 µM worked out at 96%.

Take `Nc1nc(NC2CCN(S(=O)(=O)CCNC3CCSC3=O)CC2)sc1C(=O)c1c(F)cccc1F` (stereo not drawn) [Example S152]: the inhibition at 0.25 µM worked out at 95%.

On to `CCCCN(CCO)CCS(=O)(=O)N1CCC(Nc2nc(N)c(C(=O)c3c(F)cccc3F)s2)CC1` [Example S36], for which the inhibition at 0.25 µM worked out at 17%.

As to `Nc1nc(NC2CCN(S(=O)(=O)CCNCc3ccc(F)c(F)c3)CC2)sc1C(=O)c1c(F)cccc1F` [Example S127], the inhibition at 0.25 µM came out at 60%.

For `Nc1nc(NC2CCN(S(=O)(=O)CCNCCc3ccncc3)CC2)sc1C(=O)c1c(F)cccc1F` [Example S140], the inhibition at 0.25 µM amounted to 25%.

As to `C#CCNCCS(=O)(=O)N1CCC(Nc2nc(N)c(C(=O)c3c(F)cccc3F)s2)CC1` [Example S119], the inhibition at 0.25 µM is 20%.

`CCN(CC)CCN(CC)CCS(=O)(=O)N1CCC(Nc2nc(N)c(C(=O)c3c(F)cccc3F)s2)CC1` [Example S43]: the inhibition at 0.25 µM turned out to be 13%.

For `Cc1ccc(CCNCCS(=O)(=O)N2CCC(Nc3nc(N)c(C(=O)c4c(F)cccc4F)s3)CC2)cc1` [Example S118], the inhibition at 0.25 µM was 25%.

As to `CN(CCS(=O)(=O)N1CCC(Nc2nc(N)c(C(=O)c3c(F)cccc3F)s2)CC1)CC1OCCO1` [Example S41], the inhibition at 0.25 µM was found to be 18%.

`CC(=O)N1CCN(CCS(=O)(=O)N2CCC(Nc3nc(N)c(C(=O)c4c(F)cccc4F)s3)CC2)CC1` [Example S52]: the inhibition at 0.25 µM was 18%.

On to `Nc1nc(NC2CCN(S(=O)(=O)CCN3CCSC3)CC2)sc1C(=O)c1c(F)cccc1F` [Example S22], for which the inhibition at 0.25 µM is 18%.

With `CCCC(C)(C)NCCS(=O)(=O)N1CCC(Nc2nc(N)c(C(=O)c3c(F)cccc3F)s2)CC1` [Example S145], the inhibition at 0.25 µM came out at 96%.

Turning to `Nc1nc(NC2CCN(S(=O)(=O)CCNCCc3ccccc3F)CC2)sc1C(=O)c1c(F)cccc1F` [Example S159], the inhibition at 0.25 µM was 44%.

`CN1CCCN(CCS(=O)(=O)N2CCC(Nc3nc(N)c(C(=O)c4c(F)cccc4F)s3)CC2)CC1` [Example S176]: the inhibition at 0.25 µM came out at 17%.

As for `CCN(CCO)CCS(=O)(=O)N1CCC(Nc2nc(N)c(C(=O)c3c(F)cccc3F)s2)CC1` [Example S5], the inhibition at 0.25 µM was 26%.

For `CC(C)C(CO)NCCS(=O)(=O)N1CCC(Nc2nc(N)c(C(=O)c3c(F)cccc3F)s2)CC1` (stereo not drawn) [Example S74], the inhibition at 0.25 µM was found to be 9%.

As for `CC(C)[C@@H](CO)NCCS(=O)(=O)N1CCC(Nc2nc(N)c(C(=O)c3c(F)cccc3F)s2)CC1` [Example S156], the inhibition at 0.25 µM came out at 17%.

In the case of `CC(CN(C)C)NCCS(=O)(=O)N1CCC(Nc2nc(N)c(C(=O)c3c(F)cccc3F)s2)CC1` (stereo not drawn) [Example S130], the inhibition at 0.25 µM turned out to be 20%.

With `Nc1nc(NC2CCN(S(=O)(=O)CCNCc3ccccc3)CC2)sc1C(=O)c1c(F)cccc1F` [Example S94], the inhibition at 0.25 µM is 64%.

As to `COCCN(CCOC)CCS(=O)(=O)N1CCC(Nc2nc(N)c(C(=O)c3c(F)cccc3F)s2)CC1` [Example S46], the inhibition at 0.25 µM came out at 58%.

As to `Cc1ccc(CNCCS(=O)(=O)N2CCC(Nc3nc(N)c(C(=O)c4c(F)cccc4F)s3)CC2)c(C)c1` [Example S137], the inhibition at 0.25 µM is 43%.

`Nc1nc(NC2CCN(S(=O)(=O)CCNCCOCCO)CC2)sc1C(=O)c1c(F)cccc1F` [Example S147]: the inhibition at 0.25 µM is 23%.

`Nc1nc(NC2CCN(S(=O)(=O)CCNC3Cc4ccccc4C3)CC2)sc1C(=O)c1c(F)cccc1F` [Example S161]: the inhibition at 0.25 µM came out at 45%.

As for `Nc1nc(NC2CCN(S(=O)(=O)CCNCC3CC3)CC2)sc1C(=O)c1c(F)cccc1F` [Example S139], the inhibition at 0.25 µM is 39%.

With `CC(C)N(CCNCCS(=O)(=O)N1CCC(Nc2nc(N)c(C(=O)c3c(F)cccc3F)s2)CC1)C(C)C` [Example S134], the inhibition at 0.25 µM came out at 17%.

On to `CN1CCC(NCCS(=O)(=O)N2CCC(Nc3nc(N)c(C(=O)c4c(F)cccc4F)s3)CC2)C1=O` (stereo not drawn) [Example S157], for which the inhibition at 0.25 µM was determined as 16%.

Take `C=CC(O)CN(CCC)CCS(=O)(=O)N1CCC(Nc2nc(N)c(C(=O)c3c(F)cccc3F)s2)CC1` (stereo not drawn) [Example S47]: the inhibition at 0.25 µM was 8%.

Consider `COC(=O)CNCCS(=O)(=O)N1CCC(Nc2nc(N)c(C(=O)c3c(F)cccc3F)s2)CC1` [Example S129], for which the inhibition at 0.25 µM is 25%.

As for `CC(O)CN(CCS(=O)(=O)N1CCC(Nc2nc(N)c(C(=O)c3c(F)cccc3F)s2)CC1)CC(C)O` (stereo not drawn) [Example S11], the inhibition at 0.25 µM amounted to 13%.

On to `CN(C)[C@@H]1CCN(CCS(=O)(=O)N2CCC(Nc3nc(N)c(C(=O)c4c(F)cccc4F)s3)CC2)C1` [Example S62], for which the inhibition at 0.25 µM was 6%.
